Measurements as given in ChEMBL document CHEMBL5724914, “Linking interpersonal differences in gut microbiota composition and drug biotransformation activity” (2024).

Key:
[1] = The drug is tested on WLS-370 corresponding to human gut metagenome with ENA study accession number: PRJEB37062 and ENA sample accession number: ERS12561793 for biotransformation under anaerobic condition. The drug concentrations were measured over 9 timepoints collected between 0 and 24 hours of incubation by liquid-chromatography-coupled mass spectrometry (LC–MS); settings: 2 µM
[2] = The drug is tested on WLS-082 corresponding to human gut metagenome with ENA study accession number: PRJEB37062 and ENA sample accession number: ERS12561751 for biotransformation under anaerobic condition. The drug concentrations were measured over 9 timepoints collected between 0 and 24 hours of incubation by liquid-chromatography-coupled mass spectrometry (LC–MS); settings: 2 µM
[3] = human gut metagenome, 24 h, 2 µM
[4] = human gut metagenome, 24 h, 2 µM; remark: listed apart in the source
[5] = The drug is tested on Z-013 corresponding to rabbit gut metagenome with ENA study accession number: PRJEB37062 and ENA sample accession number: ERS12561813 for biotransformation under anaerobic condition. The drug concentrations were measured over 9 timepoints collected between 0 and 24 hours of incubation by liquid-chromatography-coupled mass spectrometry (LC–MS); settings: 2 µM
[6] = human gut metagenome, 24 h, 2 µM; remark: listed apart in the source
[7] = The drug is tested on Z-011 corresponding to mouse gut metagenome with ENA study accession number: PRJEB37062 and ENA sample accession number: ERS12561811 for biotransformation under anaerobic condition. The drug concentrations were measured over 9 timepoints collected between 0 and 24 hours of incubation by liquid-chromatography-coupled mass spectrometry (LC–MS); settings: 2 µM
[8] = human gut metagenome, 24 h, 2 µM; remark: listed apart in the source
[9] = The drug is tested on WLS-006 corresponding to human gut metagenome with ENA study accession number: PRJEB37062 and ENA sample accession number: ERS12561741 for biotransformation under anaerobic condition. The drug concentrations were measured over 9 timepoints collected between 0 and 24 hours of incubation by liquid-chromatography-coupled mass spectrometry (LC–MS); settings: 2 µM
[10] = human gut metagenome, 24 h, 2 µM; remark: listed apart in the source
[11] = human gut metagenome, 24 h, 2 µM; remark: listed apart in the source
[12] = The drug is tested on Z-006 corresponding to mouse gut metagenome with ENA study accession number: PRJEB37062 and ENA sample accession number: ERS12561806 for biotransformation under anaerobic condition. The drug concentrations were measured over 9 timepoints collected between 0 and 24 hours of incubation by liquid-chromatography-coupled mass spectrometry (LC–MS); settings: 2 µM
[13] = The drug is tested on WLS-052 corresponding to human gut metagenome with ENA study accession number: PRJEB37062 and ENA sample accession number: ERS12561747 for biotransformation under anaerobic condition. The drug concentrations were measured over 9 timepoints collected between 0 and 24 hours of incubation by liquid-chromatography-coupled mass spectrometry (LC–MS); settings: 2 µM
[14] = human gut metagenome, 24 h, 2 µM; remark: listed apart in the source
[15] = human gut metagenome, 24 h, 2 µM; remark: listed apart in the source
[16] = human gut metagenome, 24 h, 2 µM; remark: listed apart in the source
[17] = The drug is tested on WLS-007 corresponding to human gut metagenome with ENA study accession number: PRJEB37062 and ENA sample accession number: ERS12561742 for biotransformation under anaerobic condition. The drug concentrations were measured over 9 timepoints collected between 0 and 24 hours of incubation by liquid-chromatography-coupled mass spectrometry (LC–MS); settings: 2 µM
[18] = The drug is tested on WLS-350 corresponding to human gut metagenome with ENA study accession number: PRJEB37062 and ENA sample accession number: ERS12561789 for biotransformation under anaerobic condition. The drug concentrations were measured over 9 timepoints collected between 0 and 24 hours of incubation by liquid-chromatography-coupled mass spectrometry (LC–MS); settings: 2 µM
[19] = The drug is tested on WLS-039 corresponding to human gut metagenome with ENA study accession number: PRJEB37062 and ENA sample accession number: ERS12561746 for biotransformation under anaerobic condition. The drug concentrations were measured over 9 timepoints collected between 0 and 24 hours of incubation by liquid-chromatography-coupled mass spectrometry (LC–MS); settings: 2 µM
[20] = The drug is tested on WLS-010 corresponding to human gut metagenome with ENA study accession number: PRJEB37062 and ENA sample accession number: ERS12561743 for biotransformation under anaerobic condition. The drug concentrations were measured over 9 timepoints collected between 0 and 24 hours of incubation by liquid-chromatography-coupled mass spectrometry (LC–MS); settings: 2 µM
Also: call rule not given here.

Compound	Bacterial Biotransformation [1]	Bacterial Biotransformation [2]	Bacterial Biotransformation [3]	Bacterial Biotransformation [4]	Bacterial Biotransformation [5]	Bacterial Biotransformation [6]	Bacterial Biotransformation [7]	Bacterial Biotransformation [8]	Bacterial Biotransformation [9]	Bacterial Biotransformation [10]	Bacterial Biotransformation [11]	Bacterial Biotransformation [12]	Bacterial Biotransformation [13]	Bacterial Biotransformation [14]	Bacterial Biotransformation [15]	Bacterial Biotransformation [16]	Bacterial Biotransformation [17]	Bacterial Biotransformation [18]	Bacterial Biotransformation [19]	Bacterial Biotransformation [20]
CC(NC(C)(C)C)C(=O)c1cccc(Cl)c1 (configuration not stated) [BUPROPION]	Compound NOT metabolized	Compound NOT metabolized	Compound NOT metabolized	Compound NOT metabolized	Compound metabolized	Compound NOT metabolized	Compound NOT metabolized	Compound NOT metabolized	Compound metabolized	Compound metabolized	Compound NOT metabolized	Compound NOT metabolized	Compound NOT metabolized	Compound NOT metabolized	Compound NOT metabolized	Compound NOT metabolized	Compound NOT metabolized	Compound NOT metabolized	Compound NOT metabolized	
CC(=O)O[C@H]1C(=O)[C@@]2(C)[C@H]([C@H](OC(=O)c3ccccc3)[C@]3(O)C[C@H](OC(=O)[C@H](O)[C@@H](NC(=O)c4ccccc4)c4ccccc4)C(C)=C1C3(C)C)[C@]1(OC(C)=O)CO[C@@H]1C[C@@H]2O [PACLITAXEL]	Compound NOT metabolized	Compound metabolized	Compound NOT metabolized	Compound NOT metabolized	Compound metabolized	Compound NOT metabolized	Compound metabolized	Compound metabolized	Compound metabolized	Compound metabolized	Compound NOT metabolized	Compound NOT metabolized	Compound metabolized	Compound NOT metabolized	Compound NOT metabolized	Compound NOT metabolized		Compound NOT metabolized	Compound metabolized	Compound metabolized
CC(C)C[C@H]1C(=O)N2CCC[C@H]2[C@]2(O)O[C@](NC(=O)[C@@H]3C=C4c5cccc6[nH]c(Br)c(c56)C[C@H]4N(C)C3)(C(C)C)C(=O)N12.CS(=O)(=O)O [BROMOCRIPTINE MESYLATE]	Compound metabolized	Compound metabolized	Compound metabolized	Compound NOT metabolized	Compound metabolized	Compound metabolized	Compound metabolized	Compound metabolized	Compound metabolized	Compound NOT metabolized	Compound NOT metabolized	Compound metabolized	Compound metabolized	Compound metabolized	Compound NOT metabolized		Compound metabolized	Compound metabolized	Compound metabolized	Compound metabolized
CN[C@H]1CC[C@@H](c2ccc(Cl)c(Cl)c2)c2ccccc21 [SERTRALINE]	Compound metabolized	Compound metabolized	Compound metabolized	Compound NOT metabolized	Compound NOT metabolized	Compound NOT metabolized	Compound metabolized	Compound NOT metabolized	Compound metabolized	Compound metabolized	Compound NOT metabolized	Compound NOT metabolized	Compound metabolized	Compound metabolized	Compound NOT metabolized	Compound NOT metabolized	Compound metabolized	Compound NOT metabolized	Compound metabolized	
Cc1cc2c(s1)Nc1ccccc1N=C2N1CCN(C)CC1 [OLANZAPINE]	Compound NOT metabolized	Compound NOT metabolized	Compound NOT metabolized		Compound NOT metabolized	Compound NOT metabolized	Compound NOT metabolized	Compound NOT metabolized	Compound NOT metabolized	Compound metabolized	Compound NOT metabolized	Compound NOT metabolized	Compound NOT metabolized		Compound metabolized		Compound NOT metabolized	Compound NOT metabolized	Compound NOT metabolized	Compound NOT metabolized
CCCCCNC(=N)N/N=C/c1c[nH]c2ccc(OC)cc12.O=C(O)/C=C\C(=O)O [TEGASEROD MALEATE]	Compound NOT metabolized	Compound metabolized	Compound NOT metabolized	Compound NOT metabolized	Compound NOT metabolized	Compound NOT metabolized	Compound NOT metabolized		Compound NOT metabolized	Compound NOT metabolized	Compound NOT metabolized	Compound NOT metabolized	Compound metabolized	Compound NOT metabolized	Compound NOT metabolized	Compound NOT metabolized	Compound NOT metabolized	Compound NOT metabolized	Compound metabolized	Compound NOT metabolized
